Experimental data as given in PubChem BioAssay AID624376 (Broad Institute, 2012).
Records with an inconclusive call do not appear. Activity calls are given as the source filed them. The rule behind the calls is not given here.

Test system: not listed separately
Test: inhibitors of EBV LMP1 NF-kappaB signaling – cell-based, luciferase reporter, luminescence, dry powder, set 2, dose response (AID 624376)
Conditions: LMP1-induced NF-kappaB luciferase reporter cells, luminescence; at 30 µM (top of the series)

In the case of `Cc1noc(C)c1S(=O)(=O)Nc1ccc2c(c1)C(=O)N([C@@H](C)CO)C[C@H](C)[C@H](CN(C)Cc1ccc(C(F)(F)F)cc1)OCCCC[C@@H](C)O2`, the activity change, negative = inhibition is reported as 2.6% (inactive).

Same assay, conditions: LMP1-induced NF-kappaB luciferase reporter cells, luminescence; at 35 µM (top of the series)

In the case of `C[C@@H](NC(=O)C[C@@H]1C=C[C@@H](NC(=O)Cc2ccccn2)[C@@H](CO)O1)c1ccccc1`, the activity change, negative = inhibition is reported as -0.171% (inactive).
For `O=C(Cc1ccccn1)NCC[C@@H]1CC[C@@H](NC(=O)Nc2ccc(Cl)cc2)[C@H](CO)O1`, the activity change, negative = inhibition was 0.177% (inactive).
In the case of `C[C@@H](NC(=O)C[C@H]1C=C[C@H](NC(=O)Cc2ccccn2)[C@H](CO)O1)c1ccccc1`, the activity change, negative = inhibition is reported as -2.05% (inactive).
In the case of `C[C@H](NC(=O)C[C@H]1C=C[C@H](NC(=O)Cc2ccccn2)[C@@H](CO)O1)c1ccccc1`, the activity change, negative = inhibition is reported as 10.7% (inactive).
For `COc1ccccc1C(=O)Nc1ccc2c(c1)C(=O)N(C)[C@@H]1CC[C@H](CC(=O)NCCc3ccncc3)O[C@H]1CO2`, the activity change, negative = inhibition was -9.84% (inactive).
In the case of `CS(=O)(=O)Nc1ccc2c(c1)[C@@H]1C[C@H](CC(=O)NCC3CC3)O[C@H](CO)[C@@H]1O2`, the activity change, negative = inhibition is reported as -9.8% (inactive).
For `Cc1noc(C)c1S(=O)(=O)Nc1ccc2c(c1)C(=O)N([C@@H](C)CO)C[C@@H](C)[C@@H](CN(C)Cc1ccc(C(F)(F)F)cc1)OCCCC[C@H](C)O2`, the activity change, negative = inhibition was 13% (inactive).
With `C[C@@H]1CN([C@@H](C)CO)C(=O)c2c(c3ccccc3n2C)-c2ccccc2CO[C@H]1CN(C)C(=O)Nc1ccc(F)cc1` the activity change, negative = inhibition was -7.17% (inactive).
With `Cc1noc(C)c1S(=O)(=O)Nc1ccc2c(c1)C(=O)N([C@H](C)CO)C[C@@H](C)[C@H](CN(C)Cc1ccc(C(F)(F)F)cc1)OCCCC[C@@H](C)O2` the activity change, negative = inhibition was -6% (inactive).
With `C[C@@H]1CN([C@@H](C)CO)C(=O)c2c(c3ccccc3n2C)-c2ccccc2CO[C@@H]1CN(C)C(=O)Nc1ccc(F)cc1` the activity change, negative = inhibition was 6.54% (inactive).
For `O=C(Cc1ccccn1)NCC[C@H]1CC[C@H](NC(=O)Nc2ccc(Cl)cc2)[C@@H](CO)O1`, the activity change, negative = inhibition was 4.16% (inactive).
In the case of `CC(C)(C)[S@@](=O)N1Cc2cc(C(=O)NCCc3ccncc3)nc(-c3cccc(-c4cccnc4)c3)c2[C@H]1CCO`, the activity change, negative = inhibition is reported as -10.1% (inactive).
In the case of `Cc1noc(C)c1S(=O)(=O)Nc1ccc2c(c1)C(=O)N([C@H](C)CO)C[C@@H](C)[C@H](CN(C)Cc1ccc(C(F)(F)F)cc1)OCCCC[C@H](C)O2`, the activity change, negative = inhibition is reported as -0.786% (inactive).
With `C[C@@H](NC(=O)C[C@@H]1C=C[C@H](NC(=O)Cc2ccccn2)[C@H](CO)O1)c1ccccc1` the activity change, negative = inhibition was 1.6% (inactive).
For `C[C@H]1CN([C@@H](C)CO)C(=O)Cc2cc(NC(=O)Cc3ccccc3)ccc2O[C@H]1CN(C)Cc1ccc(C(F)(F)F)cc1`, the activity change, negative = inhibition was 18.5% (inactive).
For `C[C@@H]1CN([C@H](C)CO)C(=O)c2c(c3ccccc3n2C)-c2ccccc2CO[C@H]1CN(C)C(=O)Nc1ccc(F)cc1`, the activity change, negative = inhibition was -0.608% (inactive).
For `O=C(C[C@@H]1C[C@H]2c3cc(NS(=O)(=O)c4ccc(F)cc4)ccc3O[C@H]2[C@@H](CO)O1)NC1CCCCC1`, the activity change, negative = inhibition was 2.38% (inactive).
In the case of `Cc1noc(C)c1S(=O)(=O)Nc1ccc2c(c1)C(=O)N([C@H](C)CO)C[C@H](C)[C@@H](CN(C)Cc1ccc(C(F)(F)F)cc1)OCCCC[C@H](C)O2`, the activity change, negative = inhibition is reported as 27.4% (inactive).

Test system: LMP1-induced NF-kappaB luciferase reporter cells, luminescence
Test: as above
Conditions: not given

Going from `COc1cccc(C#Cc2ccc([C@@H]3[C@H](C#N)N(C(=O)c4ccccn4)[C@H]3CO)cc2)c1` to `COc1cccc(C#Cc2ccc([C@@H]3[C@@H](C#N)N(C(=O)c4ccccn4)[C@@H]3CO)cc2)c1`, the AC50 falls from 29.5 µM to 19.2 µM (1.5-fold).

`Cc1ccc(S(=O)(=O)N(C)C[C@H]2Oc3cc(C#Cc4ccncc4)ccc3S(=O)(=O)N([C@@H](C)CO)C[C@@H]2C)cc1` and `Cc1ccc(S(=O)(=O)N(C)C[C@H]2Oc3cc(C#Cc4ccncc4)ccc3S(=O)(=O)N([C@@H](C)CO)C[C@H]2C)cc1` are within 1.5-fold of each other in AC50: 21.2 µM for the first, 21.4 µM for the second.

`COc1ccc(-c2cccc(-c3nc(C(=O)NCC(F)(F)F)cc4c3[C@H](CCO)N([S@@](=O)C(C)(C)C)C4)c2)cc1` and `CCCNC(=O)c1cc2c(c(-c3cccc(-c4cccc(F)c4)c3)n1)[C@H](CCO)N([S@@](=O)C(C)(C)C)C2` are within 1.5-fold of each other in AC50: 24.3 µM for the first, 22.7 µM for the second.

First: O=C(Nc1ccc(C(F)(F)F)cc1)Nc1ccc2c(c1)[C@@H]1C[C@H](CC(=O)N3CCc4ccccc4C3)O[C@@H](CO)[C@@H]1O2
Second: O=C(Nc1ccc(C(F)(F)F)cc1)Nc1ccc2c(c1)[C@H]1C[C@@H](CC(=O)N3CCc4ccccc4C3)O[C@@H](CO)[C@H]1O2
The AC50 of the first is 1.8-fold lower: 15.1 µM for the first, 27.9 µM for the second.

`O=C(C[C@@H]1C[C@@H]2c3cc(NS(=O)(=O)c4ccc(F)cc4)ccc3O[C@@H]2[C@@H](CO)O1)NCc1ccc(Oc2ccccc2)cc1` and `O=C(C[C@H]1C[C@H]2c3cc(NS(=O)(=O)c4ccc(F)cc4)ccc3O[C@H]2[C@H](CO)O1)NCc1ccc(Oc2ccccc2)cc1` are within 1.5-fold of each other in AC50: 8.07 µM for the first, 10 µM for the second.

Compared with `CN(C)c1ccc2c(c1)[C@@H]1C[C@H](CC(=O)NCc3ccc(Oc4ccccc4)cc3)O[C@@H](CO)[C@@H]1O2`, `CN(C)c1ccc2c(c1)[C@@H]1C[C@@H](CC(=O)NCc3ccc(Oc4ccccc4)cc3)O[C@H](CO)[C@@H]1O2` is 2.2-fold higher in AC50: 9.81 µM for the first, 21.6 µM for the second.

First: N#C[C@H]1[C@@H](c2ccc(-c3cccnc3)cc2)[C@@H](CO)N1C(=O)Nc1ccc(F)cc1
Second: N#C[C@@H]1[C@H](c2ccc(C#Cc3ccccc3F)cc2)[C@@H](CO)N1C(=O)c1cccnc1
The AC50 of the first is 14-fold higher: 13.9 µM for the first, 1.02 µM for the second.

`C[C@H]1CN([C@@H](C)CO)C(=O)c2cc(C#Cc3ccccc3F)cnc2O[C@@H]1CN(C)C(=O)C1CCCCC1` and `COc1ccccc1C#Cc1cnc2c(c1)C(=O)N([C@@H](C)CO)C[C@H](C)[C@@H](CN(C)C(=O)c1ccc3c(c1)OCO3)O2` are within 1.5-fold of each other in AC50: 27.7 µM for the first, 25.9 µM for the second.

First: O=C(C[C@@H]1C[C@@H]2c3cc(NC(=O)c4ccc5c(c4)OCO5)ccc3O[C@@H]2[C@@H](CO)O1)NCc1ccc(Oc2ccccc2)cc1
Second: O=C(C[C@H]1C[C@@H]2c3cc(NC(=O)c4ccc5c(c4)OCO5)ccc3O[C@@H]2[C@@H](CO)O1)NCc1ccc(Oc2ccccc2)cc1
The AC50 of the first is 2.5-fold lower: 9.85 µM for the first, 24.5 µM for the second.

`C[C@@H]1CN([C@H](C)CO)S(=O)(=O)c2ccc(/C=C/c3ccccc3)cc2O[C@H]1CN(C)C(=O)NC1CCCCC1` and `C[C@H](CO)N1C[C@H](C)[C@H](CN(C)C(=O)NC2CCCCC2)Oc2cc(/C=C/c3ccccc3)ccc2S1(=O)=O` are within 1.5-fold of each other in AC50: 25.3 µM for the first, 31 µM for the second.

Compared with `O=C(C[C@H]1CC[C@H]2[C@@H](COC[C@@H](O)CN2Cc2ccc3c(c2)OCO3)O1)Nc1ccc(-c2ccccc2)cc1`, `O=C(C[C@@H]1CC[C@@H]2[C@H](COC[C@@H](O)CN2Cc2ccc3c(c2)OCO3)O1)Nc1ccc(-c2ccccc2)cc1` is 2.4-fold lower in AC50: 24.1 µM for the first, 10.2 µM for the second.

Compared with `O=C(C[C@H]1CC[C@@H]2[C@H](COC[C@H](O)CN2Cc2ccc(Oc3ccccc3)cc2)O1)N1CCc2ccccc2C1`, `O=C(C[C@@H]1CC[C@@H]2[C@H](COC[C@@H](O)CN2Cc2ccc(Oc3ccccc3)cc2)O1)N1CCc2ccccc2C1` is 2.1-fold lower in AC50: 34.5 µM for the first, 16.4 µM for the second.

First: Cc1cc(C(=O)Nc2ccc3c(c2)C(=O)N(C)[C@@H]2CC[C@@H](CC(=O)NCc4ccc(-c5ccccc5)cc4)O[C@H]2CO3)no1
Second: Cc1cc(C(=O)Nc2ccc3c(c2)C(=O)N(C)[C@H]2CC[C@H](CC(=O)NCc4ccc(-c5ccccc5)cc4)O[C@H]2CO3)no1
The AC50 of the first is 1.8-fold higher: 25.9 µM for the first, 14.7 µM for the second.

`CN(C)C(=O)c1cccc(-c2cccc(-c3nc(C(=O)NCc4ccccc4)cc4c3[C@@H](CCO)N([S@](=O)C(C)(C)C)C4)c2)c1` and `CN(C)C(=O)c1ccc(-c2cccc(-c3nc(C(=O)NCc4ccccc4)cc4c3[C@@H](CCO)N([S@](=O)C(C)(C)C)C4)c2)cc1` are within 1.5-fold of each other in AC50: 16.9 µM for the first, 13.7 µM for the second.

Going from `CC(C)NC(=O)N1Cc2cc(C(=O)NC3Cc4ccccc4C3)nc(-c3cccc(-c4cccnc4)c3)c2[C@H]1CCO` to `CC(C)NC(=O)N1Cc2cc(C(=O)NC3Cc4ccccc4C3)nc(-c3cccc(-c4cccnc4)c3)c2[C@@H]1CCO`, the AC50 falls from 33.6 µM to 22 µM (1.5-fold).

Going from `C[C@H]1CN([C@@H](C)CO)S(=O)(=O)c2ccc(C#Cc3ccncc3)cc2O[C@H]1CN(C)C(=O)Nc1ccc2c(c1)OCO2` to `C[C@@H]1CN([C@@H](C)CO)S(=O)(=O)c2ccc(C#Cc3ccncc3)cc2O[C@H]1CN(C)C(=O)Nc1ccc2c(c1)OCO2`, the AC50 rises from 19.7 µM to 31.6 µM (1.6-fold).

`O=C(Nc1ccc(C(F)(F)F)cc1)Nc1ccc2c(c1)[C@@H]1C[C@H](CC(=O)N3CCc4ccccc4C3)O[C@H](CO)[C@@H]1O2` and `CN1C(=O)c2cc(NC(=O)c3ccc(C(F)(F)F)cc3)ccc2OC[C@@H]2O[C@@H](CC(=O)NC3Cc4ccccc4C3)CC[C@H]21` are within 1.5-fold of each other in AC50: 18.3 µM for the first, 24.5 µM for the second.

Going from `CN1C(=O)c2cc(NC(=O)Cc3cccs3)ccc2OC[C@@H]2O[C@H](CC(=O)NCc3ccc(-c4ccccc4)cc3)CC[C@H]21` to `Cc1cc(C(=O)Nc2ccc3c(c2)C(=O)N(C)[C@H]2CC[C@@H](CC(=O)NCc4ccc(-c5ccccc5)cc4)O[C@H]2CO3)no1`, the AC50 falls from 33 µM to 10.8 µM (3.1-fold).

`COc1ccccc1C#Cc1ccc2c(c1)O[C@H](CN(C)Cc1cccnc1)[C@@H](C)CN([C@@H](C)CO)S2(=O)=O` and `COc1ccccc1C#Cc1ccc2c(c1)O[C@H](CN(C)Cc1cccnc1)[C@H](C)CN([C@@H](C)CO)S2(=O)=O` are within 1.5-fold of each other in AC50: 13.9 µM for the first, 17.4 µM for the second.

Compared with `CC(C)c1ccc(NC(=O)C[C@H]2CC[C@H]3[C@@H](COc4ccc(NC(=O)Nc5ccc(F)c(F)c5)cc4C(=O)N3C)O2)cc1`, `Cc1cc(C(=O)Nc2ccc3c(c2)C(=O)N(C)[C@@H]2CC[C@H](CC(=O)NCc4ccc(-c5ccccc5)cc4)O[C@@H]2CO3)no1` is 2.3-fold lower in AC50: 22.2 µM for the first, 9.74 µM for the second.

Going from `COc1ccccc1C#Cc1ccc([C@H]2[C@H](C#N)N(C(=O)C3CC3)[C@H]2CO)cc1` to `N#C[C@H]1[C@H](c2ccc(C#Cc3ccccc3F)cc2)[C@@H](CO)N1C(=O)c1cccnc1`, the AC50 falls from 30.5 µM to 15 µM (2-fold).

Going from `CC(C)(C)[S@@](=O)N1Cc2cc(C(=O)NCc3ccccc3F)nc(-c3cccc(-c4cccnc4)c3)c2[C@H]1CCO` to `COc1ccccc1C#Cc1ccc2c(c1)O[C@H](CN(C)Cc1cccnc1)[C@H](C)CN([C@H](C)CO)S2(=O)=O`, the AC50 falls from 35.6 µM to 22.9 µM (1.6-fold).

Compared with `N#C[C@H]1N[C@H](CO)[C@H]1c1ccc(C#Cc2ccccc2F)cc1`, `O=C(C[C@@H]1C[C@H]2c3cc(NS(=O)(=O)c4ccc(F)cc4)ccc3O[C@H]2[C@@H](CO)O1)NCc1ccc(Oc2ccccc2)cc1` is higher in AC50: less than 0.26 µM for the first, 15.3 µM for the second.
